Experimental data from US6362163B1, “Parathyroid hormone-related peptide analogs” (The General Hospital Corporation, priority 1996, dated 2002).
Where no end group is shown, it is not given here.

Columns and labels:
[1] = biological target: T1, PTH/PTHrP receptor (Homo sapiens, UniProt Q03431); experiment: Ligand-induced intracellular cAMP accumulation, COS-7 cells expressing human PTH/PTHrP receptor; format: cell-based; details: for cAMP accumulation Maximum, PTH/PTHrP receptor: highest level of cAMP attained, basal 4.6 ± 0.2 not subtracted, 1h at room temperature; for cAMP agonist activity in words, PTH/PTHrP receptor: COS-7 cells
T1 construct: expressed in transfected cells; host or cells: COS-7 cells, transient transfection, vector pcDNA-1
T1 sequence (Q03431 27-593): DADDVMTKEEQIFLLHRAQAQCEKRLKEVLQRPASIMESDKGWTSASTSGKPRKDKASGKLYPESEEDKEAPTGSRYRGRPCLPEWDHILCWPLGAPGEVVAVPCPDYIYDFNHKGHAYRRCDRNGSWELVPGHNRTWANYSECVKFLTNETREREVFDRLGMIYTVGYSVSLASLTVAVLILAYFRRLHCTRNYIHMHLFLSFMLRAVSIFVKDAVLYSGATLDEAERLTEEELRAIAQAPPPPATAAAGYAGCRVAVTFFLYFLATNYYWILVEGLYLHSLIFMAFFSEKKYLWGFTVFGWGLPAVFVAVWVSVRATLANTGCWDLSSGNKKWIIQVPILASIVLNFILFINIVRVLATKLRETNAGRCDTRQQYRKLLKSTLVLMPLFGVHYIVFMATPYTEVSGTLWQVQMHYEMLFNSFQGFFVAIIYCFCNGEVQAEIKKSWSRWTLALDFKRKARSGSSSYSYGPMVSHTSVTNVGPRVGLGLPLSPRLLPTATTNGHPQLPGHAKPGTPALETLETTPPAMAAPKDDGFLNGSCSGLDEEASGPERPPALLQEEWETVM
Description: (§1) The cDNAs encoding the human PTH/PTHrP receptor (Schipani, E. et al., Endocrinology 132:2157-2165 (1993)) and the human PTH-2 receptor (Usdin, T. et al., J. Biol. Chem. 270:15455-15458 (1995)) were carried on the expression vectors pcDNA-1 and pcDNAI/Amp (InVitrogen, San Diego, Calif.), respectively. COS-7 cells were cultured and transfected as described previously (Lee, C. et al., Mol. Endocrinol. 9:1269-1278 (1995)). Cells were transfected in 24-well plates using plasmid DNA (200 ng/well) purified by cesium chloride/ethidium bromide gradient centrifugation. Ligand binding and cAMP accumulation assays were performed three days after transfection, by which time the cell density reached 500,000±100,000 cells/well.
(§2) Transfected COS-7 cells were rinsed with […] of binding buffer. 200 μl of IBMX buffer (DMEM containing 2 mM IBMX, 1 mg/ml bovine serum albumin, 35 mM Hepes-NaOH, pH 7.4) and […] of binding buffer or binding buffer containing various amounts of a PTH or PTHrP analog were then added. The plates were incubated for 60 minutes at room temperature. The buffer was then withdrawn and the cells lysed by placing the plates on powdered dry ice and adding 0.5 ml of 50 mM HCl. The acid lysate was diluted 1/30 in dH2O, and an aliquot (5-50 μl) analyzed for cAMP content by radioimmunoassay. […] The cells were then incubated for 30 minutes at room temperature, and the resulting intracellular cAMP was measured by RIA. Data were analyzed using the AssayZap software (Elsevier Science Publishers BV, Cambridge, United Kingdom).

[2] = biological target: T2, PTH-2 receptor (Homo sapiens, UniProt P49190); experiment: Ligand-induced intracellular cAMP accumulation, COS-7 cells expressing human PTH-2 receptor; format: cell-based; details: for cAMP agonist activity in words, PTH-2 receptor: COS-7 cells; for cAMP accumulation Maximum, PTH-2 receptor: highest level of cAMP attained, basal 5.4 ± 0.3 not subtracted, 1h at room temperature
T2 construct: expressed in transfected cells; host or cells: COS-7 cells, transient transfection, vector pcDNAI/Amp
T2 sequence (P49190 25-550): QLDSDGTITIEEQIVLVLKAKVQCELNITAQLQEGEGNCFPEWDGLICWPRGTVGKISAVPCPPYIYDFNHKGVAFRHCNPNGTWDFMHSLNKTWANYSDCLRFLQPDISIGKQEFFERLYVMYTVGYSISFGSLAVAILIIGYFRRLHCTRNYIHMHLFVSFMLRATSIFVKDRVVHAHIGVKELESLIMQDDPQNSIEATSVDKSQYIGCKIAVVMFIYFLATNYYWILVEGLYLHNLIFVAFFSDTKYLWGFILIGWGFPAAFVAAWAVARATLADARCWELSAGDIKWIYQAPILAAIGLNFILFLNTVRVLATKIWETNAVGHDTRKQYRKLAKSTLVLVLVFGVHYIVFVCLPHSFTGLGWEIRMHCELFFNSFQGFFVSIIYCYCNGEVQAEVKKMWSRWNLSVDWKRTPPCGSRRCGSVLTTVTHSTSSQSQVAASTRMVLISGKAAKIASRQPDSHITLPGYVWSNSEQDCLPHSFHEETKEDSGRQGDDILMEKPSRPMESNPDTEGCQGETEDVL
Description: as §1, §2

[3] = biological target: T1, PTH/PTHrP receptor; experiment: Competition radioligand binding, COS-7 cells transfected with human PTH/PTHrP receptor; details: for Binding affinity, fold weaker than PTH-(1-34): PTH/PTHrP receptor; for Binding in words, PTH/PTHrP receptor: competition with radioligand
Description: as §1
(§3) Binding reactions were performed as described previously. Id. Each well (final volume: […]) contained 26 fmole of ^125I-[Nle^8,21,Tyr^34]rPTH(1-34)NH2 (100,000 CPM) and various amounts (0.4-300 pmole) of an unlabeled competitor ligand, both diluted in binding buffer (50 mM Tris-HCl, pH 7.7, 100 mM NaCl, 5 mM KCl, 2 mM CaCl, 5% heat-inactivated horse serum, 0.5% heat-inactivated fetal bovine serum). Incubations were at room temperature for 2 hours, except for experiments involving Scatchard analysis, which were performed at 4° C. for 6 hours. At the end of the binding reaction, the cells were rinsed 3 times with 0.5 ml of binding buffer, lysed with 0.5 ml of 5M NaOH, and the entire lysate was counted. Nonspecific binding of tracer (NSB), determined in wells containing 1 μM of [NleTyr^8,21,Tyr^34]rPTH-(1-34)NH2, was ˜1% of total counts added. Maximum specific binding (B0) was calculated as the total radioactivity bound to cells in the absence of unlabeled PTH ligand, minus NSB. […] For Scatchard analyses, homologous competition binding studies were performed that used ^125I-[-NleTyr^8,21,Tyr^34]rPTH-(1-34)NH2 (26 fmole/well) and varying amounts (1.2-300 pmol) of the same unlabeled ligand. Estimates of the number of receptors/cell derived from these studies assumed a single class of binding sites and a transfection efficiency of 20% (Abou-Samra, A. B. et al., Proc. Natl. Acad. Sci (USA) 89:2732-2736 (1992)).

[4] = biological target: T2, PTH-2 receptor; experiment: Competition radioligand binding, COS-7 cells transfected with human PTH-2 receptor; details: for Binding in words, PTH-2 receptor: competition with radioligand
Description: as §1, §3

[5] = COS-7 cells, radioligand 125I-[Nle8,21,Y34]rPTH-(1-34)NH2, 2 hours at room temperature, mean ± s.e.m.

Row | cAMP accumulation Maximum, PTH/PTHrP receptor [1] | cAMP agonist activity in words, PTH-2 receptor [2] | cAMP accumulation Maximum, PTH-2 receptor [2] | Substance | further results
1 | 140 ± 17 pmoles/well | weak activity | 5.3 ± 0.6 pmoles/well | hpTHrP-(1-14)/[Y34]hPTH-(15-34)NH2 [Hybrid-1] | –
2 | 95 ± 9 pmoles/well | – | 11 ± 1 pmoles/well | hPTHrP-(1-23)/[Y34]hPTH-(24-34)NH2 [Hybrid 3] | –
3 | 123 ± 28 pmoles/well | – | – | hPTH-(1-14)/[Y34]hPTHrP-(15-34)NH2 [Hybrid-2] | –
4 | 133 ± 14 pmoles/well | – | 6.2 ± 0.4 pmoles/well | hpTHrP-(1-18)/[Y34]hpTH-(19-34)NH2 [Hybrid-5] | –
5 | – | – | – | LNSMERVEFLRKKLQDVHNY-NH2 [[F23, Y34]hPTH-(15-34)NH2] | IC50 [3, 5]: > 10 µM; IC50 [4, 5]: > 10 µM
6 | – | full agonist | 80 ± 5 pmoles/well | [Ile^5]PTHrP-(1-36) [[15, Y36]hPTHrP-(1-36)NH2] | cAMP EC50, fold higher than that of PTH-(1-34) ([2]; PTH-2 receptor): 12 fold
7 | – | nearly inactive | 11 ± 1 pmoles/well | [Tyr^36]hPTHrP-(1-36)NH2 [[Y36]hPTHrP-(1-36)NH2, reference compound] | Binding affinity, fold weaker than PTH-(1-34) [3]: six-fold weaker binding; Binding in words, PTH/PTHrP receptor ([3]; COS-7 cells): fully inhibited binding of the radioligand; Binding potency, fold weaker than PTH-(1-34) ([4]; PTH-2 receptor): more than 100 fold; Binding in words, PTH-2 receptor ([4]; COS-7 cells): bound poorly; cAMP agonist activity in words, PTH/PTHrP receptor [1]: full and potent agonists
8 | 110 ± 19 pmoles/well | – | 7.1 ± 0.9 pmoles/well | [H5, F23, Y34]hPTH-(1-34)NH2 | –
9 | 104 ± 16 pmoles/well | nearly a full agonist | 50 ± 8 pmoles/well | [F23, Y34]hPTH-(1-34)NH2 | Binding affinity, fold weaker than PTH-(1-34) [3]: 2-3 fold; Reduction in binding potency compared to unsubstituted PTH-(1-34) ([4]; PTH-2 receptor): 28 fold
10 | 107 ± 17 pmoles/well | – | 6.7 ± 0.6 pmoles/well | hPTHrP-(1-21)/[Y34]hPTH-(22-34)NH2 [Hybrid-4] | –
11 | – | – | – | [Y36]hPTHrP-(15-36)NH2 | Binding in words, PTH-2 receptor ([4]; COS-7 cells): competed weakly
12 | 116 ± 19 pmoles/well | – | 10 ± 1 pmoles/well | [H5, Y34]hPTH-(1-34)NH2 | Binding in words, PTH/PTHrP receptor ([3]; COS-7 cells): competed very poorly; cAMP agonist activity in words, PTH/PTHrP receptor [1]: efficiently stimulated cAMP formation
